{"source": "ChEMBL document CHEMBL1150543", "about": "“Semisynthesis and biological evaluation of brevifoliol 13-[N-benzoyl-(-2R,3S)-3-phenylisoserinate]” (1993)", "key": {"B16 [1]": {"tested_on": "B16", "test": "Effective dose against B16 melanoma cells in cytotoxicity assay", "assay_type": "functional", "conditions": "Mus musculus, read-out: ED50 (the source's name)"}, "B16 [2]": {"tested_on": "B16", "test": "Effective dose against B16 melanoma cells in microtubule assembly assay", "assay_type": "functional", "conditions": "Mus musculus, read-out: ED50 (the source's name)"}}, "data": [{"compound": "CC(=O)O[C@H]1C(=O)[C@@]2(C)[C@H]([C@H](OC(=O)c3ccccc3)[C@]3(O)C[C@H](OC(=O)[C@H](O)[C@@H](NC(=O)c4ccccc4)c4ccccc4)C(C)=C1C3(C)C)[C@]1(OC(C)=O)CO[C@@H]1C[C@@H]2O", "note": "[PACLITAXEL]", "values": [{"measurement": "EC50", "setting": "B16 [1]", "result": 27, "unit": "nM"}, {"measurement": "EC50", "setting": "B16 [2]", "result": 1000, "unit": "nM"}]}]}
